Measured values from the CheMixHub viscosity set.

Assay: xn = mol fraction of the nth substance listed

COCCO + CC(C)=O
viscosity [mPa·s], 101.33 kPa
Conditions | 293.15 K | 298.15 K | 303.15 K
x1 = 0.0508 | 0.373 | 0.356 | 0.342
x1 = 0.1006 | 0.439 | 0.416 | 0.397
x1 = 0.1509 | 0.507 | 0.477 | 0.453
x1 = 0.2015 | 0.563 | 0.527 | 0.5
x1 = 0.2496 | 0.613 | 0.572 | 0.541
x1 = 0.2998 | 0.652 | 0.607 | 0.574
x1 = 0.351 | 0.688 | 0.64 | 0.603
x1 = 0.3995 | 0.726 | 0.673 | 0.632
x1 = 0.4503 | 0.767 | 0.709 | 0.663
x1 = 0.5006 | 0.818 | 0.753 | 0.7
x1 = 0.5504 | 0.875 | 0.804 | 0.742
x1 = 0.6007 | 0.941 | 0.861 | 0.79
x1 = 0.6496 | 1.012 | 0.923 | 0.845
x1 = 0.6998 | 1.09 | 0.991 | 0.905
x1 = 0.7502 | 1.17 | 1.062 | 0.969
x1 = 0.8004 | 1.248 | 1.132 | 1.033
x1 = 0.8511 | 1.333 | 1.209 | 1.106
x1 = 0.8999 | 1.419 | 1.287 | 1.179
x1 = 0.9503 | 1.542 | 1.398 | 1.278

CCCCBr + CC(C)CO
viscosity [mPa·s], 101.33 kPa
Conditions | x2 = 0.101 | x2 = 0.2014 | x2 = 0.308 | x2 = 0.4025 | x2 = 0.5066 | x2 = 0.61 | x2 = 0.7006 | x2 = 0.8004 | x2 = 0.8984
298.15 K | 0.626 | 0.671 | 0.743 | 0.83 | 0.98 | 1.196 | 1.436 | 1.845 | 2.449
308.15 K | 0.549 | 0.576 | 0.624 | 0.682 | 0.783 | 0.934 | 1.1 | 1.387 | 1.807
318.15 K | 0.492 | 0.512 | 0.555 | 0.593 | 0.664 | 0.774 | 0.895 | 1.098 | 1.389

CCCCNCCCC + CC(C)CO
viscosity [mPa·s], 101.33 kPa
Conditions | 298.15 K | 308.15 K | 318.15 K
x1 = 0.0659 | 3.147 | 2.311 | 1.743
x1 = 0.0962 | 3.01 | 2.218 | 1.683
x1 = 0.1558 | 2.74 | 2.038 | 1.562
x1 = 0.1967 | 2.557 | 1.918 | 1.482
x1 = 0.2681 | 2.25 | 1.708 | 1.336
x1 = 0.3132 | 2.076 | 1.591 | 1.256
x1 = 0.3956 | 1.791 | 1.394 | 1.118
x1 = 0.4699 | 1.576 | 1.245 | 1.011
x1 = 0.5552 | 1.379 | 1.11 | 0.914
x1 = 0.6322 | 1.234 | 1.007 | 0.838
x1 = 0.7567 | 1.05 | 0.874 | 0.743
x1 = 0.8163 | 0.985 | 0.824 | 0.708
x1 = 0.8647 | 0.93 | 0.787 | 0.678
x1 = 0.8978 | 0.901 | 0.766 | 0.662
x1 = 0.9162 | 0.882 | 0.751 | 0.651

COCCO + CC(C)CO
Conditions | viscosity [mPa·s]
303.15 K, 101.3 kPa, x1 = 0.0962 | 2.478
303.15 K, 101.3 kPa, x1 = 0.2087 | 2.104
303.15 K, 101.3 kPa, x1 = 0.328 | 1.823
303.15 K, 101.3 kPa, x1 = 0.433 | 1.653
303.15 K, 101.3 kPa, x1 = 0.5976 | 1.493
303.15 K, 101.3 kPa, x1 = 0.6411 | 1.468
303.15 K, 101.3 kPa, x1 = 0.7261 | 1.431
303.15 K, 101.3 kPa, x1 = 0.8566 | 1.398
303.15 K, 101.3 kPa, x1 = 0.9229 | 1.391
308.15 K, 101.33 kPa, x1 = 0.1438 | 1.902
308.15 K, 101.33 kPa, x1 = 0.2792 | 1.664
308.15 K, 101.33 kPa, x1 = 0.3329 | 1.595
308.15 K, 101.33 kPa, x1 = 0.505 | 1.422
308.15 K, 101.33 kPa, x1 = 0.6648 | 1.32
308.15 K, 101.33 kPa, x1 = 0.7249 | 1.292
308.15 K, 101.33 kPa, x1 = 0.7936 | 1.264
308.15 K, 101.33 kPa, x1 = 0.8977 | 1.231

COCCO + CC(C)O
303.15 K, 101.3 kPa
Conditions | viscosity [mPa·s]
x1 = 0.0989 | 1.54
x1 = 0.1681 | 1.426
x1 = 0.3537 | 1.24
x1 = 0.388 | 1.222
x1 = 0.5422 | 1.196
x1 = 0.5877 | 1.202
x1 = 0.7821 | 1.268
x1 = 0.8235 | 1.288
x1 = 0.8851 | 1.324

CCCC(C)O (configuration not stated) + CC(C)OC(C)C
viscosity [mPa·s], 100 kPa
Conditions | x2 = 0.0801 | x2 = 0.1597 | x2 = 0.2402 | x2 = 0.3503 | x2 = 0.4399 | x2 = 0.5598 | x2 = 0.6493 | x2 = 0.7372 | x2 = 0.8487 | x2 = 0.9379
293.15 K | 3.43 | 2.94 | 2.52 | 2.08 | 1.76 | 1.386 | 1.13 | 0.9 | 0.64 | 0.45
298.15 K | 2.87 | 2.44 | 2.1 | 1.74 | 1.48 | 1.176 | 0.969 | 0.783 | 0.57 | 0.42
303.15 K | 2.42 | 2.06 | 1.78 | 1.49 | 1.286 | 1.04 | 0.864 | 0.705 | 0.518 | 0.389
308.15 K | 2.04 | 1.74 | 1.5 | 1.26 | 1.09 | 0.89 | 0.75 | 0.62 | 0.47 | 0.36
313.15 K | 1.71 | 1.45 | 1.26 | 1.06 | 0.922 | 0.755 | 0.64 | 0.536 | 0.414 | 0.33
318.15 K | 1.42 | 1.2 | 1.05 | 0.89 | 0.78 | 0.642 | 0.547 | 0.467 | 0.375 | 0.306
323.15 K | 1.19 | 1.02 | 0.89 | 0.76 | 0.667 | 0.554 | 0.477 | 0.41 | 0.33 | 0.28

FC(F)(Cl)Cl + CC(F)F
101 kPa, x1 = 0.606
Conditions | viscosity [mPa·s]
295.47 K | 0.199
311.17 K | 0.1745
